# According to patent publication US11485729B2, “Substituted pyridazinone compound” (Shenzhen TargetRx, Inc., priority 2018, dated 2022):
# Assay: not given
# Conditions: preclinical toxicology, clinical phase 1 and phase II data; cited from earlier work
SMILES,"effect on the central thyroid axis, heart rate or bone",liver enzymes
"CC(C)c1cc(Oc2c(Cl)cc(-n3nc(C#N)c(=O)[nH]c3=O)cc2Cl)n[nH]c1=O [MGL-3196, 2-(3,5-dichloro-4-((5-isopropyl-6-oxo-1,6-dihydropyridazin-3-yl)oxy)phenyl)-3,5-dioxo-2,3,4,5-tetrahydro-1,2,4-triazine-6-carbonitrile, reference compound]",no inhibitory effect,no increase of the liver enzymes has been observed

# Assay: Metabolic stability evaluation in human liver microsomes
# Type: in vitro ADME
# Conditions: pH 7.4, Human liver microsome, 0.5 mg/mL protein, 1 μM compound
# Protocol: (2) Metabolic Stability Evaluation
# Microsome assay: human liver microsomes: 0.5 mg/mL, Xenotech; rat liver microsomes: 0.5 mg/mL, Xenotech; coenzyme (NADPH/NADH): 1 mM, Sigma Life Science; magnesium chloride: 5 mM, 100 mM phosphate buffer (pH 7.4).
# Preparation of stock solutions: Powder of the example compounds were accurately weighed and dissolved in DMSO to 5 mM respectively.
# Preparation of phosphate buffer (100 mM, pH7.4): A pre-prepared 0.5M potassium dihydrogen phosphate (150 mL) was mixed with 0.5M dibasic potassium phosphate (700 mL). The pH of the mixture was adjusted to 7.4 with 0.5M dibasic potassium phosphate solution. The mixture was diluted 5-fold with ultrapure water before use, and magnesium chloride was added to obtain a phosphate buffer (100 mM) containing 100 mM potassium phosphate, 3.3 mM magnesium chloride, pH 7.4.
# A NADPH regeneration system solution (containing 6.5 mM NADP, 16.5 mM G-6-P, 3 U/mL G-6-P D, 3.3 mM magnesium chloride) was prepared and placed on wet ice prior to use.
# Preparation of stop solution: an acetonitrile solution containing 50 ng/mL propranolol hydrochloride and 200 ng/mL tolbutamide (internal standard). 25057.5 μL of phosphate buffer (pH 7.4) was taken into a 50 mL centrifuge tube, to which 812.5 μL of human liver microsomes were added, and mixed to obtain a liver microsome dilution with a protein concentration of 0.625 mg/mL. 25057.5 μL of phosphate buffer (pH 7.4) was taken into a 50 mL centrifuge tube, to which 812.5 μL of SD rat liver microsomes were added, and mixed to obtain a liver microsome dilution with a protein concentration of 0.625 mg/mL.
# Incubation of the samples: The stock solutions of the respective compounds were respectively diluted to 0.25 mM with an aqueous solution containing 70% acetonitrile, and used as a working solution, ready for use. 398 μL of the dilutions of human liver microsomes and rat liver microsomes were added to 96-well incubation plates (N=2), respectively, and 2 μL of 0.25 mM working solution was added respectively and mixed.
# Metabolic stability assay: 300 μL of pre-chilled stop solution was added to each well of 96-well deep well plates and placed on ice as stop plates. The 96-well incubation plates and NADPH regeneration system were placed in a 37° C. water bath, shaken at 100 rpm and pre-incubated for 5 min. 80 μL of incubation solution was taken out from each well of the incubation plates and added to the stop plates, mixed, and replenished with 20 μL of NADPH regeneration system solution as a 0-min sample. 80 μL of NADPH regeneration system solution was added to each well of the incubation plates to start the reaction and start counting. […] Separately, 100 μL of the reaction solutions was taken at 10, 30, and 90 min after the reaction, respectively, added to stop plates, and vortexed for 3 minutes to terminate the reaction. The stop plates were centrifuged at 5000×g at 4° C. for 10 min. 100 μL of the supernatant was added to a 96-well plate to which 100 μL of distilled water was previously added, mixed, and analyzed by LC-MS/MS.
# Data analysis: The peak areas of the corresponding compounds and internal standard were detected by LC-MS/MS system, and the ratio of the peak area of the compounds to the internal standard was calculated.
# The metabolic stability of the compounds in human and rat liver microsomes was evaluated by simultaneously testing and comparing the compounds disclosed herein and the non-deuterated compound. The non-deuterated compound MGL-3196 was used as a control sample.
SMILES,half-life at 1 μM [h],microsomal CLint at 1 μM [µL/min/mg]
"[2H]c1c(Cl)c(Oc2cc(C(C)C)c(=O)[nH]n2)c(Cl)c([2H])c1-n1nc(C#N)c(=O)[nH]c1=O [Compound M-4, 2-(3,5-dichloro-4-((5-isopropyl-6-oxo-1,6-dihydropyridazin-3-yl)oxy)phenyl-2,6-d2)-3,5-dioxo-2,3,4,5-tetrahydro-1,2,4-triazine-6-carbonitrile]",> 16.7,0.1 to 2
"[2H]C([2H])([2H])C(c1cc(Oc2c(Cl)cc(-n3nc(C#N)c(=O)[nH]c3=O)cc2Cl)n[nH]c1=O)C([2H])([2H])[2H] [Compound M-2, 2-(3,5-dichloro-4-((6-oxo-5-(propan-2-yl-1,1,1,3,3,3-d6)-1,6-dihydropyridazin-3-yl)oxy)phenyl)-3,5-dioxo-2,3,4,5-tetrahydro-1,2,4-triazine-6-carbonitrile]",> 16.7,0.1 to 2
"[2H]c1c(Cl)c(Oc2cc(C(C([2H])([2H])[2H])C([2H])([2H])[2H])c(=O)[nH]n2)c(Cl)c([2H])c1-n1nc(C#N)c(=O)[nH]c1=O [Compound M-3, 2-(3,5-dichloro-4-((6-oxo-5-(propan-2-yl-1,1,1,3,3,3-d6)-1,6-dihydropyridazin-3-yl)oxy)phenyl-2,6-d2)-3,5-dioxo-2,3,4,5-tetrahydro-1,2,4-triazine-6-carbonitrile]",> 16.7,0.1 to 2
"CC(C)c1cc(Oc2c(Cl)cc(-n3nc(C#N)c(=O)[nH]c3=O)cc2Cl)n[nH]c1=O [MGL-3196, 2-(3,5-dichloro-4-((5-isopropyl-6-oxo-1,6-dihydropyridazin-3-yl)oxy)phenyl)-3,5-dioxo-2,3,4,5-tetrahydro-1,2,4-triazine-6-carbonitrile, reference compound]",< 8.33,2.5 to 3
"[2H]C([2H])([2H])C(C)c1cc(Oc2c(Cl)cc(-n3nc(C#N)c(=O)[nH]c3=O)cc2Cl)n[nH]c1=O (stereo not drawn) [Compound M-1, 2-(3,5-dichloro-4-((6-oxo-5-(propan-2-yl-1,1,1-d3)-1,6-dihydropyridazin-3-yl)oxy)phenyl)-3,5-dioxo-2,3,4,5-tetrahydro-1,2,4-triazine-6-carbonitrile]",> 16.7,0.1 to 2
